# Measured values published in the supplement of paper PMC8882468.
# Test system: HCI-001 (organoid from a triple-negative breast cancer xenograft)
# Assay: CTG-3D luminescence at 96 h relative to day-0 seeding control (ratio to day 0); higher = more growth / less cytotoxicity; PDxO 3D drug screen, 96 h, CTG-3D normalised to day-0 seeding control.
# Conditions: 12.5 pM; days in culture: 240
row,Compound,CTG-3D luminescence at 96 h
1,COc1cc2c(Oc3ccc4[nH]c(C)cc4c3F)ncnc2cc1OCCCN1CCCC1 [cediranib],1.68
2,CC(C)n1nc(-c2ccc3oc(N)nc3c2)c2c(N)ncnc21 [sapanisertib],1.65
3,Cc1cc(Nc2ncnc3ccc(NC4=NC(C)(C)CO4)cc23)ccc1Oc1ccn2ncnc2c1 [tucatinib],1.47
4,C[C@H](NC(=O)CCC(F)(F)F)C(=O)N[C@@H]1C(=O)N(CCO)c2ncccc2-c2ccccc21 [crenigacestat],1.25
5,C[C@]12CC[C@@H]3c4ccc(O)cc4C[C@@H](CCCCCCCCC[S+]([O-])CCCC(F)(F)C(F)(F)F)[C@H]3[C@@H]1CC[C@@H]2O (some centres not stated) [fulvestrant],1.44
6,O=C(c1ccc(F)c(F)c1Nc1ccc(I)cc1F)N1CC(O)([C@@H]2CCCCN2)C1 [cobimetinib],1.59
7,O=C(/C=C/c1cccnc1)NCCCCC1CCN(C(=O)c2ccccc2)CC1 [FK866],1.51
8,CS(=O)(=O)c1ccc(C(=O)Nc2ccc(Cl)c(-c3ccccn3)c2)c(Cl)c1 [vismodegib],1.85
9,C=CCn1c(=O)c2cnc(Nc3ccc(N4CCN(C)CC4)cc3)nc2n1-c1cccc(C(C)(C)O)n1 [adavosertib],1.67

# Same assay, conditions: 12.5 pM; days in culture: 260
row,Compound,CTG-3D luminescence at 96 h
1,COc1cc2c(Oc3ccc4[nH]c(C)cc4c3F)ncnc2cc1OCCCN1CCCC1 [cediranib],1.84
2,CC(C)n1nc(-c2ccc3oc(N)nc3c2)c2c(N)ncnc21 [sapanisertib],2.4
3,Cc1cc(Nc2ncnc3ccc(NC4=NC(C)(C)CO4)cc23)ccc1Oc1ccn2ncnc2c1 [tucatinib],2.62
4,C[C@H](NC(=O)CCC(F)(F)F)C(=O)N[C@@H]1C(=O)N(CCO)c2ncccc2-c2ccccc21 [crenigacestat],2.03
5,C[C@]12CC[C@@H]3c4ccc(O)cc4C[C@@H](CCCCCCCCC[S+]([O-])CCCC(F)(F)C(F)(F)F)[C@H]3[C@@H]1CC[C@@H]2O (some centres not stated) [fulvestrant],2.56
6,O=C(c1ccc(F)c(F)c1Nc1ccc(I)cc1F)N1CC(O)([C@@H]2CCCCN2)C1 [cobimetinib],2.44
7,O=C(/C=C/c1cccnc1)NCCCCC1CCN(C(=O)c2ccccc2)CC1 [FK866],2.05
8,CS(=O)(=O)c1ccc(C(=O)Nc2ccc(Cl)c(-c3ccccn3)c2)c(Cl)c1 [vismodegib],2.49
9,C=CCn1c(=O)c2cnc(Nc3ccc(N4CCN(C)CC4)cc3)nc2n1-c1cccc(C(C)(C)O)n1 [adavosertib],1.62

# Same assay, conditions: 12.5 pM; days in culture: 269
row,Compound,CTG-3D luminescence at 96 h
1,COc1cc2c(Oc3ccc4[nH]c(C)cc4c3F)ncnc2cc1OCCCN1CCCC1 [cediranib],1.74
2,CC(C)n1nc(-c2ccc3oc(N)nc3c2)c2c(N)ncnc21 [sapanisertib],1.45
3,Cc1cc(Nc2ncnc3ccc(NC4=NC(C)(C)CO4)cc23)ccc1Oc1ccn2ncnc2c1 [tucatinib],1.48
4,C[C@H](NC(=O)CCC(F)(F)F)C(=O)N[C@@H]1C(=O)N(CCO)c2ncccc2-c2ccccc21 [crenigacestat],1.62
5,C[C@]12CC[C@@H]3c4ccc(O)cc4C[C@@H](CCCCCCCCC[S+]([O-])CCCC(F)(F)C(F)(F)F)[C@H]3[C@@H]1CC[C@@H]2O (some centres not stated) [fulvestrant],1.44
6,O=C(c1ccc(F)c(F)c1Nc1ccc(I)cc1F)N1CC(O)([C@@H]2CCCCN2)C1 [cobimetinib],1.48
7,O=C(/C=C/c1cccnc1)NCCCCC1CCN(C(=O)c2ccccc2)CC1 [FK866],1.52
8,CS(=O)(=O)c1ccc(C(=O)Nc2ccc(Cl)c(-c3ccccn3)c2)c(Cl)c1 [vismodegib],1.57
9,C=CCn1c(=O)c2cnc(Nc3ccc(N4CCN(C)CC4)cc3)nc2n1-c1cccc(C(C)(C)O)n1 [adavosertib],1.43

# Same assay, conditions: 12.5 pM; days in culture: 327
row,Compound,CTG-3D luminescence at 96 h
1,COc1cc2c(Oc3ccc4[nH]c(C)cc4c3F)ncnc2cc1OCCCN1CCCC1 [cediranib],1.52
2,CC(C)n1nc(-c2ccc3oc(N)nc3c2)c2c(N)ncnc21 [sapanisertib],1.36
3,Cc1cc(Nc2ncnc3ccc(NC4=NC(C)(C)CO4)cc23)ccc1Oc1ccn2ncnc2c1 [tucatinib],1.8
4,C[C@H](NC(=O)CCC(F)(F)F)C(=O)N[C@@H]1C(=O)N(CCO)c2ncccc2-c2ccccc21 [crenigacestat],1.46
5,C[C@]12CC[C@@H]3c4ccc(O)cc4C[C@@H](CCCCCCCCC[S+]([O-])CCCC(F)(F)C(F)(F)F)[C@H]3[C@@H]1CC[C@@H]2O (some centres not stated) [fulvestrant],1.73
6,O=C(c1ccc(F)c(F)c1Nc1ccc(I)cc1F)N1CC(O)([C@@H]2CCCCN2)C1 [cobimetinib],1.36
7,O=C(/C=C/c1cccnc1)NCCCCC1CCN(C(=O)c2ccccc2)CC1 [FK866],1.45
8,CS(=O)(=O)c1ccc(C(=O)Nc2ccc(Cl)c(-c3ccccn3)c2)c(Cl)c1 [vismodegib],2.09
9,C=CCn1c(=O)c2cnc(Nc3ccc(N4CCN(C)CC4)cc3)nc2n1-c1cccc(C(C)(C)O)n1 [adavosertib],1.54

# Same assay, conditions: 12.5 pM; days in culture: 346
row,Compound,CTG-3D luminescence at 96 h
1,COc1cc2c(Oc3ccc4[nH]c(C)cc4c3F)ncnc2cc1OCCCN1CCCC1 [cediranib],1.6
2,CC(C)n1nc(-c2ccc3oc(N)nc3c2)c2c(N)ncnc21 [sapanisertib],1.38
3,Cc1cc(Nc2ncnc3ccc(NC4=NC(C)(C)CO4)cc23)ccc1Oc1ccn2ncnc2c1 [tucatinib],1.47
4,C[C@H](NC(=O)CCC(F)(F)F)C(=O)N[C@@H]1C(=O)N(CCO)c2ncccc2-c2ccccc21 [crenigacestat],1.3
5,C[C@]12CC[C@@H]3c4ccc(O)cc4C[C@@H](CCCCCCCCC[S+]([O-])CCCC(F)(F)C(F)(F)F)[C@H]3[C@@H]1CC[C@@H]2O (some centres not stated) [fulvestrant],1.34
6,O=C(c1ccc(F)c(F)c1Nc1ccc(I)cc1F)N1CC(O)([C@@H]2CCCCN2)C1 [cobimetinib],1.24
7,O=C(/C=C/c1cccnc1)NCCCCC1CCN(C(=O)c2ccccc2)CC1 [FK866],1.25
8,CS(=O)(=O)c1ccc(C(=O)Nc2ccc(Cl)c(-c3ccccn3)c2)c(Cl)c1 [vismodegib],1.82
9,C=CCn1c(=O)c2cnc(Nc3ccc(N4CCN(C)CC4)cc3)nc2n1-c1cccc(C(C)(C)O)n1 [adavosertib],1.44

# Same assay, conditions: 12.5 pM; days in culture: 364
row,Compound,CTG-3D luminescence at 96 h
1,COc1cc2c(Oc3ccc4[nH]c(C)cc4c3F)ncnc2cc1OCCCN1CCCC1 [cediranib],1.33
2,CC(C)n1nc(-c2ccc3oc(N)nc3c2)c2c(N)ncnc21 [sapanisertib],1.44
3,Cc1cc(Nc2ncnc3ccc(NC4=NC(C)(C)CO4)cc23)ccc1Oc1ccn2ncnc2c1 [tucatinib],1.49
4,C[C@H](NC(=O)CCC(F)(F)F)C(=O)N[C@@H]1C(=O)N(CCO)c2ncccc2-c2ccccc21 [crenigacestat],1.4
5,C[C@]12CC[C@@H]3c4ccc(O)cc4C[C@@H](CCCCCCCCC[S+]([O-])CCCC(F)(F)C(F)(F)F)[C@H]3[C@@H]1CC[C@@H]2O (some centres not stated) [fulvestrant],1.63
6,O=C(c1ccc(F)c(F)c1Nc1ccc(I)cc1F)N1CC(O)([C@@H]2CCCCN2)C1 [cobimetinib],1.35
7,O=C(/C=C/c1cccnc1)NCCCCC1CCN(C(=O)c2ccccc2)CC1 [FK866],1.18
8,CS(=O)(=O)c1ccc(C(=O)Nc2ccc(Cl)c(-c3ccccn3)c2)c(Cl)c1 [vismodegib],1.66
9,C=CCn1c(=O)c2cnc(Nc3ccc(N4CCN(C)CC4)cc3)nc2n1-c1cccc(C(C)(C)O)n1 [adavosertib],1.41

# Same assay, conditions: 0.00025 µM; days in culture: 240
row,Compound,CTG-3D luminescence at 96 h
1,COc1cc2c(Oc3ccc4[nH]c(C)cc4c3F)ncnc2cc1OCCCN1CCCC1 [cediranib],1.12
2,CC(C)n1nc(-c2ccc3oc(N)nc3c2)c2c(N)ncnc21 [sapanisertib],0.951
3,Cc1cc(Nc2ncnc3ccc(NC4=NC(C)(C)CO4)cc23)ccc1Oc1ccn2ncnc2c1 [tucatinib],0.88
4,C[C@H](NC(=O)CCC(F)(F)F)C(=O)N[C@@H]1C(=O)N(CCO)c2ncccc2-c2ccccc21 [crenigacestat],1.04
5,C[C@]12CC[C@@H]3c4ccc(O)cc4C[C@@H](CCCCCCCCC[S+]([O-])CCCC(F)(F)C(F)(F)F)[C@H]3[C@@H]1CC[C@@H]2O (some centres not stated) [fulvestrant],1.04
6,O=C(c1ccc(F)c(F)c1Nc1ccc(I)cc1F)N1CC(O)([C@@H]2CCCCN2)C1 [cobimetinib],1.08
7,O=C(/C=C/c1cccnc1)NCCCCC1CCN(C(=O)c2ccccc2)CC1 [FK866],1.26
8,CS(=O)(=O)c1ccc(C(=O)Nc2ccc(Cl)c(-c3ccccn3)c2)c(Cl)c1 [vismodegib],1.26
9,C=CCn1c(=O)c2cnc(Nc3ccc(N4CCN(C)CC4)cc3)nc2n1-c1cccc(C(C)(C)O)n1 [adavosertib],0.913

# Same assay, conditions: 0.00025 µM; days in culture: 260
row,Compound,CTG-3D luminescence at 96 h
1,COc1cc2c(Oc3ccc4[nH]c(C)cc4c3F)ncnc2cc1OCCCN1CCCC1 [cediranib],0.917
2,CC(C)n1nc(-c2ccc3oc(N)nc3c2)c2c(N)ncnc21 [sapanisertib],1.29
3,Cc1cc(Nc2ncnc3ccc(NC4=NC(C)(C)CO4)cc23)ccc1Oc1ccn2ncnc2c1 [tucatinib],0.988
4,C[C@H](NC(=O)CCC(F)(F)F)C(=O)N[C@@H]1C(=O)N(CCO)c2ncccc2-c2ccccc21 [crenigacestat],0.875
5,C[C@]12CC[C@@H]3c4ccc(O)cc4C[C@@H](CCCCCCCCC[S+]([O-])CCCC(F)(F)C(F)(F)F)[C@H]3[C@@H]1CC[C@@H]2O (some centres not stated) [fulvestrant],1.23
6,O=C(c1ccc(F)c(F)c1Nc1ccc(I)cc1F)N1CC(O)([C@@H]2CCCCN2)C1 [cobimetinib],1.15
7,O=C(/C=C/c1cccnc1)NCCCCC1CCN(C(=O)c2ccccc2)CC1 [FK866],0.894
8,CS(=O)(=O)c1ccc(C(=O)Nc2ccc(Cl)c(-c3ccccn3)c2)c(Cl)c1 [vismodegib],1.08
9,C=CCn1c(=O)c2cnc(Nc3ccc(N4CCN(C)CC4)cc3)nc2n1-c1cccc(C(C)(C)O)n1 [adavosertib],1.31
